Consider ten molecules from patent publication US12297207B2, “Maytansinoid derivatives, conjugates thereof, and methods of use” (priority 2015, dated 2025).

The test system of experiment [1] is T47D ductal carcinoma line (PRLR+). The experiment is described as follows: In vitro cytotoxicity assay (CellTiter-Glo), T47D cells. In kind it is cell-based, human. The conditions noted are these: Table 5, payloads only; for IC50: 5 days, read-out: T47D IC50; for T47D % kill: highest concentration tested. As for the experimental part: The present example provides cytotoxicity assays for conjugates provided herein. To evaluate the ability of anti-PRLR antibodies conjugated with 63, 60, 77, and 78 to kill a PRLR expressing cell line, an in vitro cytotoxicity assay using a T47D ductal carcinoma line (ATCC, #HTB-133), which was previously determined to express >27,000 copies of human PRLR at its cell surface, was utilized.
For the assay, T47D cells were seeded onto white 96 well plates at 2,000 cells/well in media containing DMEM supplemented with 10% FBS, NEAA, and pencillin/streptomycinin (complete media). They were grown overnight at 37° C. in 5% CO2. To determine cell viability curves, the following day antibody drug conjugates, unconjugated antibodies, or free payloads were added to the cells at final serial dilutions ranging from 100 nM to 0.01 nM in complete medium and then incubated for an additional 5 days. Luciferase activity was detected after the addition of CellTiter-Glo™ reagent (Promega, G7571) to each well, which contains reagents to lyse the remaining viable cells to release their ATP, ATPase inhibitors to prevent degradation of the ATP, as well as luciferin and luciferase to catalyse the luminescent reaction. Viable cells prior to addition of CellTiter-Glo will be the only source of ATP since the dead cells in culture will not synthesis ATP and any of their released ATP will be destroyed via endogenous ATPases. Relative light units (RLUs) were measured on a Victor luminometer (PerkinElmer) and the results were determined using a four-parameter logistic equation over a 10-point response curve (GraphPad Prism). All measured values and calculated IC50 values were corrected for payload equivalents. All IC50 values are expressed in nM concentration and percent kill is reported for the highest concentration tested.
Background: Cellular ATP, detected with luciferase, serves as a proxy for viable cell number.

For the next experiment, the system named is C4-2 (PSMA+) cells. Description: In vitro cytotoxicity assay (CCK8 viability), C4-2 cells. The format is cell-based. The conditions noted are these: Table 5, payloads only; for IC50: read-out: C4-2 IC50. As for the experimental part: In this Example, the ability of various antibody-drug conjugates or their associated payloads to kill antigen-expressing tumor cells in vitro was assessed.
Ovcar3 (Muc16+) or C4-2 (PSMA+) cells were seeded in 96 well plates at 3000 (C42) cells per well in complete growth media and grown overnight. For cell viability curves, serially diluted conjugates or payloads were added to the cells at final concentrations ranging from 300 nM to 5 pM and incubated for 3 days. To measure viability, cells were incubated with CCK8 (Dojindo) for the final 1-3 hours and the absorbance at 450 nm (OD450) was determined on a Victor (Perkin Elmer). Background OD450 levels determined from digitonin ([…]) treated cells were subtracted from all wells and viability is expressed as a percentage of the untreated controls. IC50 values were determined from a four-parameter logistic equation over a 10-point response curve (GraphPad Prism). All conjugate curves and IC50 values are corrected for payload equivalents.

One may read the IC50 as the concentration at which inhibition is half-maximal. With `COc1cc2cc(c1Cl)N(C)C(=O)CC(OC(=O)C(C)N(C)C(=O)c1ccc(N)c3cccnc13)C1(C)OC1C(C)C1CC(O)(NC(=O)O1)C(OC)C=CC=C(C)C2` [Compound 45, Maytansin-N-methyl-L-alanine-(5-amino-8-carboxyquinoline)carboxamide], in experiment [1], the IC50 was found to be 3.73 nM and the T47D % kill is 72%.

Consider `COc1cc2cc(c1Cl)N(C)C(=O)CC(OC(=O)C(C)N(C)C(=O)c1cc(N)ccc1F)C1(C)OC1C(C)C1CC(O)(NC(=O)O1)C(OC)C=CC=C(C)C2` [Compound 71, Maytansin-N-methyl-L-alanine-N-(2-fluoro-5-amino)benzamide], for which, in experiment [1], the IC50 was 0.73 nM and the T47D % kill is recorded as 68%.

Take `COc1cc2cc(c1Cl)N(C)C(=O)C[C@H](OC(=O)[C@H](C)N(C)C(=O)c1cccc(N)c1)[C@]1(C)O[C@H]1[C@H](C)[C@@H]1C[C@@](O)(NC(=O)O1)[C@H](OC)/C=C/C=C(\C)C2` [Compound 73, Maytansin-N-methyl-L-alanine-N-(3-amino)benzamide]: in experiment [1], the IC50 was 0.57 nM and the T47D % kill came out at 73%.

With `COc1cc2cc(c1Cl)N(C)C(=O)C[C@H](OC(=O)[C@H](C)N(C)C(=O)c1ccc(N)c(S(C)(=O)=O)c1)[C@]1(C)O[C@H]1[C@H](C)[C@@H]1C[C@@](O)(NC(=O)O1)[C@H](OC)/C=C/C=C(\C)C2` [Compound 80, Maytansin-N-methyl-L-alanine-N-(3-methylsulfonyl-4-amino)benzamide], in the experiment with C4-2 (PSMA+) cells, the C4-2 % kill was found to be 91% and the IC50 was found to be 1.3 nM.

On to `COc1cc2cc(c1Cl)N(C)C(=O)C[C@H](OC(=O)[C@H](C)N(C)C(=O)c1ccc(N)c(N3CCOCC3)c1)[C@]1(C)O[C@H]1[C@H](C)[C@@H]1C[C@@](O)(NC(=O)O1)[C@H](OC)/C=C/C=C(\C)C2` [Compound 88, Maytansin-N-methyl-L-alanine-N-(3-morpholino-4-amino)benzamide], for which, in the experiment with C4-2 (PSMA+) cells, the C4-2 % kill amounted to 89% and the IC50 was 0.05 nM.

As for `COc1cc2cc(c1Cl)N(C)C(=O)C[C@H](OC(=O)[C@H](C)N(C)C(=O)c1ccccc1N)[C@]1(C)O[C@H]1[C@H](C)[C@@H]1C[C@@](O)(NC(=O)O1)[C@H](OC)/C=C/C=C(\C)C2` [Compound 84, Maytansin-N-methyl-L-alanine-N-(2-amino)benzamide], in the experiment with C4-2 (PSMA+) cells, the C4-2 % kill stood at 88% and the IC50 is 0.07 nM.

Consider `COc1cc2cc(c1Cl)N(C)C(=O)C[C@H](OC(=O)[C@H](C)N(C)C(=O)c1ccc(N)c(Br)c1)[C@]1(C)O[C@H]1[C@H](C)[C@@H]1C[C@@](O)(NC(=O)O1)[C@H](OC)/C=C/C=C(\C)C2` [Compound 47, Maytansin-N-methyl-L-alanine-(3-bromo-4-amino)benzamide], for which, in experiment [1], the half-maximal inhibitory concentration (IC50) was found to be 0.01 nM and the T47D % kill is 72%.

For the molecule `COc1ccc(C(=O)N(C)[C@@H](C)C(=O)O[C@H]2CC(=O)N(C)c3cc(cc(OC)c3Cl)C/C(C)=C/C=C/[C@@H](OC)[C@@]3(O)C[C@H](OC(=O)N3)[C@@H](C)[C@@H]3O[C@@]23C)c(N)c1` [Compound 86, Maytansin-N-methyl-L-alanine-N-(4-methoxy-2-amino)benzamide], in the experiment on C4-2 (PSMA+) cells, the C4-2 % kill worked out at 90% and the IC50 was determined as 0.73 nM.

Take `COc1cc2cc(c1Cl)N(C)C(=O)C[C@H](OC(=O)[C@H](C)N(C)C(=O)c1ccc(N)c(NC(C)=O)c1)[C@]1(C)O[C@H]1[C@H](C)[C@@H]1C[C@@](O)(NC(=O)O1)[C@H](OC)/C=C/C=C(\C)C2` [Compound 90, Maytansin-N-methyl-L-alanine-N-(3-acetamido-4-amino)benzamide]: in the experiment with C4-2 (PSMA+) cells, the C4-2 % kill was determined as 86% and the IC50 was greater than 100 nM.

For `COc1cc2cc(c1Cl)N(C)C(=O)CC(OC(=O)C(C)N(C)C(=O)c1ccc(N)c(O)c1)C1(C)OC1C(C)C1CC(O)(NC(=O)O1)C(OC)C=CC=C(C)C2` [Compound 82, Maytansin-N-methyl-L-alanine-N-(3-hydroxy-4-amino)benzamide], in the experiment with C4-2 (PSMA+) cells, the C4-2 % kill is recorded as 93% and the IC50 came out at 19.9 nM.
